What is called EC50 is the midpoint of the concentration-response curve. As usually defined, the AUC(0-inf) is total exposure, with the tail of the curve extrapolated. A lower AUC(0-inf) goes with low exposure. As a reminder, the fraction unbound is the share of the substance not bound to proteins or other matrix.

Data set [1] deals with T1, N-formyl peptide receptor 2 (Homo sapiens, UniProt P25090).
T1 sequence (P25090 whole entry): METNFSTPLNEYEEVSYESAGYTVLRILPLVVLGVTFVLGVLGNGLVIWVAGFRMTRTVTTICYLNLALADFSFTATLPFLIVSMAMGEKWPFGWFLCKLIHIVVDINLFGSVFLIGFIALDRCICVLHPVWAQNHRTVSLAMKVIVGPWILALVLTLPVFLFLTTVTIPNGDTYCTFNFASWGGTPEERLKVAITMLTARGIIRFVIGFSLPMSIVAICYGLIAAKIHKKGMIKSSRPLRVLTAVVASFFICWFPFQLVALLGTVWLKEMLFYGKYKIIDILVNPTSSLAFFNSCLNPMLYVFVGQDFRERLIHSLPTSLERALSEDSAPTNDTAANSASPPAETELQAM
Nature of the data set: Agonist activity at human FPR2 overexpressing CHO cells assessed as reduction in intracellular cAMP level incubated for 30 mins by HTRF assay. The format is functional, cell-based. On the technique in general: Changes in cAMP serve as a functional read-out for many G protein-coupled receptors.

Data set [2] can be described thus: AUC (0 to infinity) in C57BL6 mouse at 3 mg/kg, po and measured upto 24 hrs by LC-MS/MS analysis. As to conditions: in vivo. Set-up: dose 3 mg/kg, time < 24 hrs, route po. The format is ADME, organism-based.
Data set [3] in a line: Permeability of the compound at pH 5.5 by PAMPA assay. The format is ADME. The settings on record: read-out: permeability. In general terms: In PAMPA a lipid-coated filter parts donor from acceptor wells.
A short description of data set [4]: Protein binding in human assessed as free fraction. The format is ADME.
The next data set deals with Peritoneal macrophage. Kind of data set: Induction of phagocytosis in mouse peritoneal macrophages assessed as increase in FITC signal preincubated with compound for 15 mins followed by zymosan addition and measured after 1 hr by Trypan Blue based FITC analysis.

Some results are limits rather than exact numbers.

With `COc1cc(F)c([C@@H]2CNC(=O)[C@H]2Nc2nnc(-c3ccc(Cl)cc3F)o2)c(F)c1`, the half-maximal effective concentration (EC50) in data set [1] came to 840 nM.
As for `COc1ccc(-c2nnc(N[C@@H]3C(=O)NC[C@H]3c3c(F)cc(OC)cc3F)o2)cc1`, in data set [1], the 50% effective concentration (EC50) was found to be 3700 nM.
For `COc1cc(F)c([C@@H]2CNC(=O)[C@H]2Nc2noc(-c3ccc(Cl)cc3)n2)c(F)c1`, in data set [1], the EC50 was 2500 nM.
The same measure, in the same setting: then `COc1cc(F)c([C@@H]2CNC(=O)[C@H]2c2nc3ccccc3[nH]2)c(F)c1`, with 680 nM; and `COc1cc(F)c([C@@H]2CNC(=O)[C@H]2Nc2ncc(-c3ccc(Cl)cc3)o2)c(F)c1`, with 250 nM.
`COc1cc(F)c([C@@H]2CNC(=O)[C@H]2Nc2cc(-c3ccc(Cl)cc3)on2)c(F)c1` gave an AUC(0-inf) in data set [2] of 15 µM·h. Moreover, the Papp in data set [3] was 110 ×10⁻⁶ cm/s. Further, the free fraction (fraction unbound) in data set [4] is 0.005.
Consider `COc1cc(F)c([C@@H]2CNC(=O)[C@H]2c2nc3cc(OC)ccc3[nH]2)c(F)c1`, for which, in data set [1], the EC50 was over 5000 nM.
The same measure, in the same setting: the result for `COc1cc(F)c([C@@H]2CNC(=O)[C@H]2Nc2nc3ccccc3[nH]2)c(F)c1` reads 1300 nM.
On the same count and under the same terms, then `COc1cc(F)c([C@@H]2CNC(=O)[C@H]2c2nc3nc(Cl)ccc3[nH]2)c(F)c1`, with 2300 nM; and `COc1cc(F)c([C@@H]2CNC(=O)[C@H]2Nc2cc(-c3ccc(Cl)cc3)n(C)n2)c(F)c1`, with over 10000 nM; and `COc1ccc([C@@H]2CNC(=O)[C@H]2Nc2nnc(-c3ccc(Cl)cc3)o2)cc1`, with 160 nM.
Still for that read-out and setting: then `COc1cc(F)c([C@@H]2CNC(=O)[C@H]2c2nc3cc(Cl)cnc3[nH]2)c(F)c1`, with 40 nM; and `COc1ccc([C@@H]2CNC(=O)[C@H]2Nc2nnc(-c3ccc(Cl)cc3)o2)c(F)c1`, with 40 nM; and `COc1cc(F)c([C@@H]2CNC(=O)[C@H]2Nc2nnc(-c3ccc(OC(F)(F)F)cc3)o2)c(F)c1`, with 53 nM.
Turning to `COc1cc(F)c([C@@H]2CNC(=O)[C@H]2Nc2nc(-c3ccc(Cl)cc3)no2)c(F)c1`, the concentration giving a half-maximal response (EC50) in data set [1] was 3500 nM.
Same read-out and setting: the result for `COc1cc(F)c([C@@H]2CNC(=O)[C@H]2Nc2nnc(-c3ccccc3Cl)o2)c(F)c1` reads over 10000 nM.
On to `COc1cc(F)c([C@@H]2CNC(=O)[C@H]2Nc2nnc(-c3ccc(Cl)cc3)o2)c(F)c1`, for which, in data set [2], the total exposure AUC(0-inf) turned out to be 8.4 µM·h. Also, in data set [3], the Papp came to 97 ×10⁻⁶ cm/s. The fraction unbound in data set [4] stood at 0.015. Moreover, the concentration giving a half-maximal response (EC50) in data set [1] was 32 nM.
`COc1cc(F)c([C@@H]2CNC(=O)[C@H]2NC(=O)Nc2ccccc2)c(F)c1` [BMS-986235] displayed an area under the curve AUC(0-inf) in data set [2] of 5.6 µM·h. For the same compound, the 50% effective concentration (EC50) in the data set on Peritoneal macrophage was under 1 nM. For the same compound, the Papp in data set [3] worked out at 44 ×10⁻⁶ cm/s. For the same compound, the fraction unbound in data set [4] came out at 0.127.
Turning to `COc1cc(F)c([C@@H]2CNC(=O)[C@H]2Nc2cc(-c3ccc(Cl)cc3)no2)c(F)c1`, the EC50 in data set [1] amounted to 2200 nM.
The same measure, in the same setting: the result for `COc1cc(F)c([C@@H]2CNC(=O)[C@H]2Nc2nnc(-c3cccc(Cl)c3)o2)c(F)c1` reads over 10000 nM; that for `COc1cc(F)c([C@@H]2CNC(=O)[C@H]2c2nc3cc(Cl)ccc3[nH]2)c(F)c1`, 110 nM; that for `COc1cc(F)c([C@@H]2CNC(=O)[C@H]2Nc2nnc(-c3ccc(Cl)cc3)s2)c(F)c1`, 37 nM.
On the same count and under the same terms, the result for `COc1cc(F)c([C@@H]2CNC(=O)[C@H]2Nc2nnc(-c3ccccc3)o2)c(F)c1` reads 250 nM; that for `COc1cc(F)c([C@@H]2CNC(=O)[C@H]2c2nc3c(Cl)cccc3[nH]2)c(F)c1`, over 10000 nM; that for `COc1cc(F)c([C@@H]2CNC(=O)[C@H]2Nc2cc(-c3ccc(Cl)cc3)[nH]n2)c(F)c1`, over 10000 nM.
